Consider two compounds from article PMC12866179, “Oxidized MIF is an Alzheimer’s disease drug target relaying external risk factors to tau pathology” (Cell Reports Medicine, 2025).

Read-outs that look alike come from different tables or passages of the source.

The target of one series is T1, CUTA (Homo sapiens, UniProt O60888).
T1 construct: endogenous in cells; host or cells: SH-SY5Y-tau-P301S cell lysate
T1 sequence (O60888 33-179): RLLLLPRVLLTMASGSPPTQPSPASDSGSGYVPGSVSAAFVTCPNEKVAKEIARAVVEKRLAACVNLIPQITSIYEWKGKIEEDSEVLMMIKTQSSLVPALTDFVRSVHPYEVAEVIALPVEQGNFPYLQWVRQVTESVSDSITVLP
Nature of the series: Drug resin affinity chromatography (DRAC), CUTA. As to conditions: SH-SY5Y-tau-P301S lysates. In kind it is binding. As to the method: (§1) For drug resin affinity chromatography (DRAC), supernatant of cell lysates or brain extracts were supplemented with 1 mM of ribonucleoside triphosphates (ATP, GTP, CTP, UTP; NEB), 10 mM creatine phosphate (Sigma) and 10 μL/mL of a 5 mg/mL stock solution of creatine kinase (Sigma). The samples were then loaded onto 20 μL of compound-coupled resin that were equilibrated with PBB-buffer (plus supplements). After one hour of incubation at 26°C, the beads were washed with PBB (100x bed volume). Bound proteins were then eluted either with 200 μM PAV-645 (pig brain) or 100 μM free compound (human brain samples; cell lysates) in the same buffer used as competitor solution or for stripping 1% SDS or 8M urea (cell lysates) for 1h. All elutions were kept frozen until further analysis.

A short description of the next series: MTT assay, Vero cells. As to conditions: for CC50 at 24 h: African green monkey. In kind it is cell-based. How it is done: For viability analysis 4x10^4 Vero or 8x10^4 SH-SY5Y-tau-P301S cells were plated in a 96-well plate and incubated at 37°C overnight. Then the compounds diluted in DMSO were added to the cells. The final concentration of DMSO was 1%. The cells were then incubated for 24h (Vero) or 48h (SH-SY5Y). Afterward 20 μL of a Thiazolyl Blue Tetrazolium Bromide (MTT, Sigma) solution (5 mg/mL in PBS) was added to the cells and incubated for 4h allowing viable cells to reduce the yellow MTT into blue formazan metabolites. Following aspiration of the medium, the formazan was resuspended in 200 μL isopropanol/40 mM HCl and incubated for 30 min at RT. The diluted formazan was spectrometrically analyzed using a Tecan Safire Spectrometer at 560 nm and background at 670 nm was subtracted.
Background: Tetrazolium dyes change colour on reduction, which living cells bring about.

Another series has as its target T2, MIF (Homo sapiens, UniProt P14174).
T2 construct: endogenous in cells; host or cells: SH-SY5Y-tau-P301S cell lysate
T2 sequence (P14174 2-115): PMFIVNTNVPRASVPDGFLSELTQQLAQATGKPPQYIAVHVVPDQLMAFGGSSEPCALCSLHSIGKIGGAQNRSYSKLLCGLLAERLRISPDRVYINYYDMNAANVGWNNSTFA
The series is described as follows: Drug resin affinity chromatography (DRAC), MIF. The format is binding. To be noted: SH-SY5Y-tau-P301S lysates. How it is done:
as §1

The test system of a further series is tau phosphorylation. Nature of the series: Tau assay (immunoblot of phospho-tau) in SH-SY5Y-tau-P301S cells. To be noted: for tau phosphorylation at Ser202 and Thr205 (AT8): absence of virus, ISO-1 up to 100 μM; for effect on tau phosphorylation (AT8) in MIF-knockdown cells: SH-SY5Y-tau-P301S-MIF-knockdown cells; for potency relative to PAV-802 in inhibiting tau phosphorylation: in vitro assay. The format is cell-based, human. As to the method:
For the analysis of compound effects on tau phosphorylation 4x10^5 SH-SY5Y tau-P301S cells were seeded on 24-well plates. At the next day the cells were treated with compounds diluted in DMSO. Final concentration of DMSO was 0.2%. After an incubation at 37°C for 48h the cells were washed twice with PBS and then lysed in PBS/1% NP40 (Applichem) including the cOmplete protease inhibitor cocktail 2 (Roche) and phosphatase inhibitor cocktail (Sigma). The protein concentration of the samples was determined with the DC Protein Assay (Bio-Rad).
After the protein concentration of cell lysates and homogenates had been determined using the DC Protein Assay Kit (Bio-Rad), 20 μg of each sample were dissolved in NuPAGE LDS Sample buffer (including 2% β-mercaptoethanol), boiled at 100°C for 5 min and then separated on NuPAGE Novex 4–12% Bis-Tris midi gels (Invitrogen) using NuPAGE MES SDS Running buffer (Invitrogen). Proteins were then transferred to a 0.2 μm nitrocellulose membrane (Amersham) in 24 mM Tris/192 mM glycine/20% MeOH at 400 mA for 2h using a tank blot system (Bio-Rad). In order to detect any blotting artifacts, the proteins on the membranes were visualized with Ponceau S (Sigma). The membranes were destained with PBS and then blocked with PBS/5% nonfat milk (Oxoid) for 1h at RT. Incubations with primary antibodies (diluted 1:1,000) in PBS-T were carried out overnight at 4°C. Then the membranes were washed three times with PBS-T for 10 min and afterward incubated with fluorescent secondary antibodies (IR Dye 680 or 800: Li-COR Biosciences.) diluted 1:20,000 in PBS-T for 1h at RT. Following three washing steps with PBS-T for 10 min each, the membranes were scanned using an LI-COR Odyssey CLX. Signal intensities were calculated using the Image Studio Version 2.1 software (LI-COR Biosciences). Blots were reused for staining with additional primary antibodies following the same procedure.

For another series, the system named is pox viruses. To be noted: cited from earlier work.
The nature of a further series: in vitro. The format is in vitro ADME.
In the next series the test system is HSV-1. The series is described as follows: In-cell ELISA for antiviral (HSV-1) activity in Vero cells. The format is cell-based, HSV-1 KOS strain. As to conditions: for IC50: Human alphaherpesvirus 1, Vero; for potency relative to PAV-802 in inhibiting HSV-1 replication: in vitro assay. As to the method:
Antiviral activity of the compounds was measured by in-cell ELISA that was adapted from Fabiani et al.[90] […] In parallel cells were infected with serial dilutions of HSV-1 to generate a standard curve. […] Following blocking with 5% BSA in PBS/0.05% Tween 20 (Sigma, PBS-T) for 60 min the cells were incubated with 50 μL of anti-HSV-1-gC antibody (abcam) diluted 1 to 10,000 in PBS-T over night at 4°C. The following day, cells were washed four times with PBS-T and then incubated with Hrp-conjugated goat anti-mouse antibody (Thermo Fisher Scientific) at a dilution of 1:10,000 in PBS-T for 60 min. Then, cells were washed four times with PBS-T before adding 50 μL of the substrate cocktail (OptEIA, BD). The reaction was stopped after 30 min by adding 50 μL of 2N H2SO4 and signals were spectrometrically analyzed using a Tecan Safire at 450 nm.
In general terms: ELISA stands for enzyme-linked immunosorbent assay.

As for `[I-].c1cc2nc3ccc(N4CCCC4)cc3[s+]c2cc1N1CCCC1` [PAV-617, 3,7-Di(pyrrolidine-1-yl)phenothiazine-5-ium iodide], on CUTA, the “elution of CUTA from PAV-617 resins by free compound” value is “eluted”. This compound also had a cytotoxic concentration (CC50) in the series “MTT assay, Vero cells” (CC50 (µM)) of 20.1 µM. The “elution of MIF from PAV-617 resins by free compound” value on MIF is reported as “eluted”. The “tau phosphorylation at Ser202 and Thr205 (AT8)” value in the series with tau phosphorylation (SH-SY5Y-tau-P301S cells) is “reduced tau phosphorylati on ly in control”. Further, in the series with tau phosphorylation, the “effect on tau phosphorylation (AT8) in MIF-knockdown cells” value is “bu t no t in MIF-knockdown” and the “potency relative to PAV-802 in inhibiting tau phosphorylation” value is reported as “retained that enhanced activity”. For the same compound, the “antiviral effects on pox viruses” value with pox viruses is recorded as “antiviral effects”. For the same compound, the fraction unbound in the series “in vitro” was 0.088. Also, in the series on HSV-1, the midpoint of inhibition, the IC50, lay at 220 nM and the “potency relative to PAV-802 in inhibiting HSV-1 replication” value is reported as “retained that enhanced activity”.

As for `CCc1cc(N2CCCC2)cc2[s+]c3cc(N4CCCC4)cc(C)c3nc12.[I-]` [PAV-174, 3,7-Di(pyrrolidine-1-yl) 1-ethyl-9-methyl-phenothiazin-5-ium iodide], the “elution of CUTA from PAV-617 resins by free compound” value at CUTA is “eluted”. In addition, in “MTT assay, Vero cells” (CC50 (µM)), the CC50 at 24 h amounted to 1.2 µM and the CC50 was determined as 1.16 µM. In the series “MTT assay, Vero cells” (CC50, MTT assay in Vero), this compound came in with a CC50 at 24 h of 1.12 µM. In addition, the “elution of MIF from PAV-617 resins by free compound” value at MIF is “eluted”. Besides, in the series on tau phosphorylation (SH-SY5Y-tau-P301S cells), the “tau phosphorylation at Thr181 (AT270)” value was “only at higher concentrations”; the “tau phosphorylation at Thr231 (AT180)” value is “dose-dependent reduction”; the “tau phosphorylation at Ser202 and Thr205 (AT8)” value is given as “reduced tau phosphorylation”. In the series with tau phosphorylation (SH-SY5Y-tau-P301S cells infected with HSV-1), the “HSV-1-induced increase of tau phosphorylation (AT8)” value is recorded as “absent”. In addition, in the series with tau phosphorylation, the “effect on tau phosphorylation (AT8) in MIF-knockdown cells” value is recorded as “absent” and the “potency relative to PAV-802 in inhibiting tau phosphorylation” value is “around 2 logs”. Moreover, the “antiviral effects on pox viruses” value with pox viruses was “antiviral effects”. In the series “in vitro”, this compound showed a fraction unbound of 0.001. Further, in the series on HSV-1, the half-maximal inhibitory concentration (IC50) is 20 nM and the “potency relative to PAV-802 in inhibiting HSV-1 replication” value is “around 2 logs”. Moreover, in the series on HSV-1 (read-out: IC50, HSV-1 replication, in-cell ELISA), the IC50 worked out at 21 nM.

As usually defined, the CC50 is the concentration at which the toxic effect on the cells reaches its halfway point. In general, fraction unbound refers to free concentration divided by total concentration. A low value points to extensive binding. What is called IC50 is the point on the concentration scale where inhibition reaches its midpoint.
